Data from PubChem BioAssay (NCI).
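Five concentrations, 48 hours, 96-well plates. TGI denotes the concentration required for complete inhibition of growth.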

Experiments:
Test in all cases: growth of human tumour cells (NCI), 48 h
OVCAR-3 ovarian = system: OVCAR-3 ovarian
SNB-19 CNS = system: SNB-19 CNS
SK-MEL-28 melanoma = system: SK-MEL-28 melanoma
MCF7 breast = system: MCF7 breast
KM12 colon = system: KM12 colon
LOX IMVI melanoma = system: LOX IMVI melanoma
ACHN renal = system: ACHN renal
NCI-H226 lung = system: NCI-H226 lung
MDA-N = system: MDA-N
COLO 205 colon = system: COLO 205 colon
RPMI-8226 leukemia = system: RPMI-8226 leukemia
CCRF-CEM leukemia = system: CCRF-CEM leukemia
HCT-15 colon = system: HCT-15 colon
SK-MEL-5 melanoma = system: SK-MEL-5 melanoma
RXF 393 renal = system: RXF 393 renal
SN12C renal = system: SN12C renal
NCI-H522 lung = system: NCI-H522 lung
NCI-H460 lung = system: NCI-H460 lung
OVCAR-5 ovarian = system: OVCAR-5 ovarian
HOP-92 NSCLC = system: HOP-92 NSCLC
SF-539 CNS = system: SF-539 CNS
A498 renal = system: A498 renal
MALME-3M melanoma = system: MALME-3M melanoma
A549 NSCLC = system: A549 NSCLC
DU-145 prostate = system: DU-145 prostate
CAKI-1 renal = system: CAKI-1 renal
MOLT-4 leukemia = system: MOLT-4 leukemia
MDA-MB-231 breast = system: MDA-MB-231 breast
UACC-257 melanoma = system: UACC-257 melanoma
OVCAR-8 ovarian = system: OVCAR-8 ovarian
SF-268 CNS = system: SF-268 CNS
786-0 renal = system: 786-0 renal
SK-OV-3 ovarian = system: SK-OV-3 ovarian
NCI/ADR-RES ovarian = system: NCI/ADR-RES ovarian
M14 melanoma = system: M14 melanoma
TK-10 renal = system: TK-10 renal
SK-MEL-2 melanoma = system: SK-MEL-2 melanoma
U251 CNS = system: U251 CNS
SNB-75 CNS = system: SNB-75 CNS
SW-620 colon = system: SW-620 colon
MDA-MB-435 = system: MDA-MB-435
PC-3 prostate = system: PC-3 prostate
HOP-62 NSCLC = system: HOP-62 NSCLC
BT-549 breast = system: BT-549 breast
IGROV1 ovarian = system: IGROV1 ovarian
UO-31 renal = system: UO-31 renal
SF-295 CNS = system: SF-295 CNS
T-47D breast = system: T-47D breast
HS 578T breast = system: HS 578T breast
EKVX NSCLC = system: EKVX NSCLC
K-562 leukemia = system: K-562 leukemia
NCI-H23 lung = system: NCI-H23 lung
OVCAR-4 ovarian = system: OVCAR-4 ovarian
HCC-2998 colon = system: HCC-2998 colon
HCT-116 colon = system: HCT-116 colon
HT29 colon = system: HT29 colon
UACC-62 melanoma = system: UACC-62 melanoma
SR leukemia = system: SR leukemia
HL-60(TB) leukemia = system: HL-60(TB) leukemia

Measured: TGI

O=C(/C=C/c1ccc(OCc2ccccc2)cc1)NCc1ccc(C(=O)NCc2ccccc2)cc1
> 100 µM: OVCAR-3 ovarian | SNB-19 CNS | SK-MEL-28 melanoma | MCF7 breast | KM12 colon | LOX IMVI melanoma | ACHN renal | NCI-H226 lung | MDA-N | COLO 205 colon | RPMI-8226 leukemia | CCRF-CEM leukemia | HCT-15 colon | SK-MEL-5 melanoma | RXF 393 renal | SN12C renal | NCI-H522 lung | NCI-H460 lung | OVCAR-5 ovarian | HOP-92 NSCLC | SF-539 CNS | A498 renal | MALME-3M melanoma | A549 NSCLC | DU-145 prostate | CAKI-1 renal | MOLT-4 leukemia | MDA-MB-231 breast | UACC-257 melanoma | OVCAR-8 ovarian | SF-268 CNS | 786-0 renal | SK-OV-3 ovarian | NCI/ADR-RES ovarian | M14 melanoma | TK-10 renal | SK-MEL-2 melanoma | U251 CNS | SNB-75 CNS | SW-620 colon | MDA-MB-435 | PC-3 prostate | HOP-62 NSCLC | BT-549 breast | IGROV1 ovarian | UO-31 renal | SF-295 CNS | T-47D breast | HS 578T breast | EKVX NSCLC | K-562 leukemia | NCI-H23 lung | OVCAR-4 ovarian | HCC-2998 colon | HCT-116 colon | HT29 colon | UACC-62 melanoma | SR leukemia

O=C1C(C(c2ccc([N+](=O)[O-])cc2)N2CCOCC2)=C(O)C(c2ccccc2)N1c1ccccc1 (stereo unspecified)
> 10 µM: OVCAR-3 ovarian | SNB-19 CNS | SK-MEL-28 melanoma | MCF7 breast | KM12 colon | LOX IMVI melanoma | ACHN renal | NCI-H226 lung | MDA-N | COLO 205 colon | RPMI-8226 leukemia | CCRF-CEM leukemia | HCT-15 colon | SK-MEL-5 melanoma | RXF 393 renal | SN12C renal | NCI-H522 lung | NCI-H460 lung | OVCAR-5 ovarian | SF-539 CNS | A498 renal | MALME-3M melanoma | A549 NSCLC | DU-145 prostate | CAKI-1 renal | MOLT-4 leukemia | MDA-MB-231 breast | UACC-257 melanoma | OVCAR-8 ovarian | SF-268 CNS | 786-0 renal | SK-OV-3 ovarian | NCI/ADR-RES ovarian | M14 melanoma | TK-10 renal | SK-MEL-2 melanoma | U251 CNS | SNB-75 CNS | SW-620 colon | MDA-MB-435 | PC-3 prostate | HOP-62 NSCLC | BT-549 breast | IGROV1 ovarian | UO-31 renal | SF-295 CNS | T-47D breast | HS 578T breast | EKVX NSCLC | K-562 leukemia | NCI-H23 lung | OVCAR-4 ovarian | HCC-2998 colon | HCT-116 colon | HL-60(TB) leukemia | HT29 colon | UACC-62 melanoma | SR leukemia
